Results reported in ChEMBL document CHEMBL5046262, “Fragment-Based Discovery of MRTX1719, a Synthetic Lethal Inhibitor of the PRMT5•MTA Complex for the Treatment of MTAP-Deleted Cancers” (J Med Chem, 2022).
Values joined by “and” are separate entries in the source; they are usually repeats but may differ in a detail not shown here. Equal values may be shown once.

Columns and labels:
[1] = biological target: T1, Protein arginine N-methyltransferase 5 (Homo sapiens, UniProt O14744); assay: Inhibition of PRMT5 methyltransferase activity in MTAP knockout human HCT-116 cells assessed as inhibition of PRMT5- mediated SDMA modification level incubated for 96 hrs by Western blot analysis; assay type: cell-based
T1 sequence (O14744 whole entry): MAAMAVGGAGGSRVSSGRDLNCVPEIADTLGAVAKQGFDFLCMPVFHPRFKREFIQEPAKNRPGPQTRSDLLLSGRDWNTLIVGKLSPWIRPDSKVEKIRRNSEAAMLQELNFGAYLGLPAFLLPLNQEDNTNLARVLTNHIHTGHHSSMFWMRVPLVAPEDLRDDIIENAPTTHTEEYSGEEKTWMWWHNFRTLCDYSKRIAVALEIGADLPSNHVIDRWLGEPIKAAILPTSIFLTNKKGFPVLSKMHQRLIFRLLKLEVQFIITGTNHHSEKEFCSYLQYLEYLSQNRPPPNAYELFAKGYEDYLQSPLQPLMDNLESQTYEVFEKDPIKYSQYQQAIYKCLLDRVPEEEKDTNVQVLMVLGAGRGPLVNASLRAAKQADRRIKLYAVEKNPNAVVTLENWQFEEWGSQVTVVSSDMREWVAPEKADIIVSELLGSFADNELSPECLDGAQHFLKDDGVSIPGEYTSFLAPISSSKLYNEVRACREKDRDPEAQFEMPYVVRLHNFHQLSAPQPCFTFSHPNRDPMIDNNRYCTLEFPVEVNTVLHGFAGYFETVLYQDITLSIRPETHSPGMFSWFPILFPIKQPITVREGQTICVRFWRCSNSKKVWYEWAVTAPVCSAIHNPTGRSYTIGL

[2] = Efflux ratio of apparent permeability across basolateral to apical side over apical to basolateral side in dog MDCKII-MDR1 cells at 2 uM incubated for 2.5 hrs by LC-MS/MS analysis; assay type: ADME, cell-based, Canis lupus familiaris, MDCK-MDR1; settings: for efflux ratio at 2.5 h, 2 µM: MDCK-MDR1; for Ratio: mdck-mdr1, 2.5 h, 2 µM, 2.5 h
HCT-116 [3] = assay: Antiproliferative activity against human HCT-116 cells expressing wild type MTAP assessed as reduction in cell viability incubated for 5 days followed by replacement with fresh medium containing compound and measured after 5 days by CTG assay; assay type: functional, cell-based
[4] = biological target: T1, Protein arginine N-methyltransferase 5; assay: Inhibition of PRMT5 methyltransferase activity in human HCT-116 cells expressing wild type MTAP assessed as inhibition of PRMT5- mediated SDMA modification level incubated for 96 hrs by Western blot analysis; assay type: cell-based
HCT-116 [5] = assay: Antiproliferative activity against MTAP knockout human HCT-116 cells assessed as reduction in cell viability incubated for 5 days followed by replacement with fresh medium containing compound and measured after 5 days by CTG assay; assay type: functional, cell-based
[6] = Apparent permeability across apical to basolateral side in dog MDCKII-MDR1 cells at 2 uM incubated for 2.5 hrs by LC-MS/MS analysis; assay type: ADME, cell-based, Canis lupus familiaris, MDCK-MDR1; settings: for Papp A→B at 2.5 h, 2 µM: MDCK-MDR1
[7] = Intrinsic clearance in mouse hepatocytes; assay type: ADME, cell-based, Hepatocyte; settings: read-out: CLH
[8] = Intrinsic clearance in human hepatocytes; assay type: ADME, cell-based, Hepatocyte; settings: read-out: CLH
[9] = biological target: T1, Protein arginine N-methyltransferase 5
[10] = biological target: T1, Protein arginine N-methyltransferase 5; remark: listed apart in the source
Homo sapiens [11] = species on record: Homo sapiens; assay: Selectivity ratio of IC50 for inhibition of human PRMT5 co-complexed with MEP50 in absence of MTA to IC50 for inhibition of MTA-bound human PRMT5 co-complexed with MEP50
[12] = Total clearance in CD-1 mouse at 3 mg/kg, iv measured upto 24 hrs by LC-MS/MS analysis; assay type: ADME, organism-based; settings: in vivo
[13] = Half life in CD-1 mouse at 3 mg/kg, iv measured upto 24 hrs by LC-MS/MS analysis; assay type: ADME, organism-based; settings: in vivo
[14] = Oral bioavailability in beagle dog at 10 mg/kg administered via gavage measured upto 24 hrs by LC-MS/MS analysis; assay type: ADME, organism-based, Canis lupus familiaris; settings: in vivo
[15] = AUCinfinity in CD-1 mouse at 30 mg/kg, po administered via gavage measured upto 24 hrs by LC-MS/MS analysis; assay type: ADME, organism-based; parameters: route oral, dose 30 mg/kg, time <=24; settings: in vivo
[16] = Cmax in beagle dog at 10 mg/kg, po administered via gavage measured upto 24 hrs by LC-MS/MS analysis; assay type: ADME, organism-based, Canis lupus familiaris; parameters: route oral, dose 10 mg/kg, time <=24; settings: in vivo
[17] = Oral bioavailability in cynomolgus monkey at 10 mg/kg administered via gavage measured upto 24 hrs by LC-MS/MS analysis; assay type: ADME, organism-based, Macaca fascicularis; settings: in vivo
[18] = Volume of distribution at steady state in cynomolgus monkey at 2 mg/kg, iv measured upto 24 hrs by LC-MS/MS analysis; assay type: ADME, organism-based, Macaca fascicularis; settings: in vivo, read-out: Vdss
[19] = Volume of distribution at steady state in beagle dog at 2 mg/kg, iv measured upto 24 hrs by LC-MS/MS analysis; assay type: ADME, organism-based, Canis lupus familiaris; settings: in vivo, read-out: Vdss
[20] = Total clearance in cynomolgus monkey at 2 mg/kg, iv measured upto 24 hrs by LC-MS/MS analysis; assay type: ADME, organism-based, Macaca fascicularis; settings: in vivo
[21] = Half life in cynomolgus monkey at 2 mg/kg, iv measured upto 24 hrs by LC-MS/MS analysis; assay type: ADME, organism-based, Macaca fascicularis; settings: in vivo
[22] = Cmax in CD-1 mouse at 30 mg/kg, po administered via gavage measured upto 24 hrs by LC-MS/MS analysis; assay type: ADME, organism-based; parameters: route oral, dose 30 mg/kg, time <=24; settings: in vivo
[23] = Volume of distribution at steady state in CD-1 mouse at 3 mg/kg, iv measured upto 24 hrs by LC-MS/MS analysis; assay type: ADME, organism-based; settings: in vivo, read-out: Vdss
[24] = Half life in beagle dog at 2 mg/kg, iv measured upto 24 hrs by LC-MS/MS analysis; assay type: ADME, organism-based, Canis lupus familiaris; settings: in vivo
[25] = Total clearance in beagle dog at 2 mg/kg, iv measured upto 24 hrs by LC-MS/MS analysis; assay type: ADME, organism-based, Canis lupus familiaris; settings: in vivo
[26] = Oral bioavailability in CD-1 mouse at 30 mg/kg administered via gavage measured upto 24 hrs by LC-MS/MS analysis; assay type: ADME, organism-based; settings: in vivo
[27] = AUCinfinity in beagle dog at 10 mg/kg, po administered via gavage measured upto 24 hrs by LC-MS/MS analysis; assay type: ADME, organism-based, Canis lupus familiaris; parameters: route oral, dose 10 mg/kg, time <=24; settings: in vivo
Homo sapiens [28] = species on record: Homo sapiens; assay: Selectivity ratio of IC50 for inhibition of PRMT5 methyltransferase activity in human HCT-116 cells expressing wild type MTAP to IC50 for nhibition of PRMT5 methyltransferase activity in MTAP knockout human HCT-116 cells; assay type: cell-based

Row | Structure (SMILES) | IC50 [1] [µM] | efflux ratio at 2.5 h, 2 µM [2] | IC50 (HCT-116 [3]) | IC50 [4] | IC50 (HCT-116 [5]) | Papp A→B at 2.5 h, 2 µM [6] [×10⁻⁶ cm/s] | CLint scaled [7] [mL/min/kg] | CLint scaled [8] [mL/min/kg] | IC50 [9] [µM] | IC50 [10] [µM] | Ratio IC50 (Homo sapiens [11]) | other results
1 | Cn1ncc(-c2ccc3c(=O)[nH]nc(CN)c3c2)c1-c1ccccc1 | 2.47 | 20 | 4.06 µM | 9.81 µM | 3.65 µM | 1.5 | 123 | 23 | 3 |  |  | 
2 | CCCn1cc(-c2ccc3c(=O)[nH]nc(CN)c3c2)cn1 |  | 2.7 |  |  |  | 3.2 |  |  | 0.32 | 7.65 | 24 | 
3 | NCc1n[nH]c(=O)c2ccc(-c3ccccc3)cc12 |  |  |  |  |  |  |  |  |  |  | 3 | 
4 | Cc1cccc(-c2c(-c3ccc4c(=O)[nH]nc(CN)c4c3)cnn2C)c1C#N | 0.101 | 36 | > 10 µM | 8.83 µM | 0.365 µM | 0.6 | 296 | 29 | 3 |  |  | 
5 | CCn1cc(-c2ccc3c(=O)[nH]nc(CN)c3c2)cn1 |  | 6.2 |  |  |  | 2 |  |  | 0.51 | 10.6 | 21 | 
6 | Cc1ccc(-c2ccc3c(=O)[nH]nc(CN)c3c2)cn1 |  | 3.5 |  |  |  | 4.7 |  |  | 5.8 | 69 | 12 | 
7 | NCc1n[nH]c(=O)c2ccc(-c3cnsc3)cc12 |  | 0.8 |  |  |  | 11.1 |  |  | 0.71 | 11.6 | 16 | 
8 | Cn1ncc(-c2ccc3c(=O)[nH]nc(CN)c3c2)c1-c1c(F)cc2ccccc2c1C#N |  | 85 | 1.02 µM and 5.93 µM | 0.569 µM and > 1 µM |  | 0.4 | 255 | 18 |  |  |  | clearance [12]: 78 mL/min/kg; half-life [13]: 1.5 h; bioavailability [14]: 60%; Ratio [2]: 136; AUC(0-inf) [15]: 2730 ng·h/mL; Cmax [16]: 880 ng/mL; bioavailability [17]: 28%; Vd [18]: 3.3 L/kg; Vd [19]: 4.4 L/kg; clearance [20]: 24 mL/min/kg; half-life [21]: 2.6 h; Papp ([6]; mdck-mdr1, 2.5 h, 2 µM, 2.5 h): 0.3 ×10⁻⁶ cm/s; Cmax [22]: 590 ng/mL; Vd [23]: 5.3 L/kg; half-life [24]: 3.9 h; clearance [25]: 21 mL/min/kg; bioavailability [26]: 34%; AUC(0-inf) [27]: 4800 ng·h/mL
9 | Cn1ncc(-c2ccc3c(=O)[nH]nc(CN)c3c2)c1-c1ccccc1C#N | 0.826 | 7 | > 10 µM | 3.17 µM | 5.23 µM | 1.6 | 148 | < 18 | 4 |  |  | Ratio IC50 (Homo sapiens [28]): 4
10 | NCc1n[nH]c(=O)c2ccc(-c3ccccn3)cc12 |  | 1.2 |  |  |  | 9.3 |  |  | 95.8 | > 100 |  | 
11 | Cc1cc(OC2CC2)c(C#N)c(-c2c(-c3ccc4c(=O)[nH]nc(CN)c4c3)cnn2C)c1 | 0.009 | 62 | 1.29 µM |  | 0.077 µM | 0.4 | 175 | 21 |  |  |  | 
12 | NCc1n[nH]c(=O)c2ccc(-c3cccnc3)cc12 |  | 0.7 |  |  |  | 2.8 |  |  | 0.91 | 19 | 21 | 
13 | Cn1ncc(-c2ccc3c(=O)[nH]nc(CN)c3c2)c1-c1cc2ccccc2cc1C#N | 0.118 | 31 | 5.09 µM |  | 0.264 µM | 0.5 | 212 | < 18 |  |  |  | 
14 | Cn1ncc(-c2ccc3c(=O)[nH]nc(CN)c3c2)c1-c1c(F)ccc(OC2CC2)c1C#N |  | 143 | 2.18 µM and 3.62 µM and 4.21 µM | 1.05 µM and 4.48 µM | 0.043 µM and 0.017 µM and 0.112 µM | 0.2 | 143 | 18 |  |  |  | Ratio [2]: 123 and 150
